Measured values: patent US5952321A, “Substituted azetidinones as anti-inflammatory and antidegenerative agents” (Merck & Co., Inc., priority 1996, dated 1999)
Like-named read-outs stand apart in the source and are kept apart here.

How the values were obtained:
[1] = target: T1, Human Polymorphonuclear Leukocyte Elastase (Homo sapiens, UniProt P08246); test: Inhibition of human polymorphonuclear leukocyte elastase via hydrolysis of Boc-AAPAN or Boc-AAPVN; format: biochemical; conditions: second order rate constant for inactivation of the enzyme, read-out: Kobs /[I]
T1 sequence (P08246 30-267): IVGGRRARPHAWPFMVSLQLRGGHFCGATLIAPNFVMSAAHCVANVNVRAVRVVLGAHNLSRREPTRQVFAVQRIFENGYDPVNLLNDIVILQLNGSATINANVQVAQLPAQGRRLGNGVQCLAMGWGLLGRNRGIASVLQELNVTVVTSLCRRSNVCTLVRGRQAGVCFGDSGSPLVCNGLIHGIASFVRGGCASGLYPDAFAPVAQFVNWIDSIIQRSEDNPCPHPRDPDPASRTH
Outline: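 Crude human PMN extract was added to 0.2 mM Boc-AAPAN or Boc-AAPVN substrate solution in 0.05 M TES pH 7.5 containing inhibitor in DMSO; extract volume was adjusted per batch activity. Hydrolysis was followed as ΔOD/min at 410 mμ, after a pre-check for spontaneous hydrolysis. Values are ID50 (μg/ml, 50% inhibition at 2 min), Ki (μM) or kobs/I.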

HUMAN PROTEINASE 3 = target: T2, HUMAN PROTEINASE 3 (Homo sapiens, UniProt P24158); test: Inhibition of PR3 catalyzed hydrolysis of MeO-Succ-AAPV-pNA; format: biochemical; conditions: Table IV; 45 mM TES pH 7.5, 450 mM NaCl, 10% DMSO; 0.2 mM MeO-succ-AAPV-pNA; read-out: SORC (second order rate constant, kobs /I)
T2 sequence (P24158 28-256): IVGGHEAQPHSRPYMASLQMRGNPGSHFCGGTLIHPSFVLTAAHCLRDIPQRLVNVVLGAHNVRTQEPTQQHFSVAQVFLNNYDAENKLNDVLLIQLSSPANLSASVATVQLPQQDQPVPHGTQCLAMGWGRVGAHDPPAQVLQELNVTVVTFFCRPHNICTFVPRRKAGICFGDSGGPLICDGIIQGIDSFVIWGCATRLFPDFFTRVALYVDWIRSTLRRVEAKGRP
Experimental: The PR3 catalyzed hydrolysis of MeO-Succ-AAPV-pNA was measured in a spectrophotometer monitoring absorbance at 410 nm. The enzymatic activity was determined in 45 mM TES at pH 7.5, 450 mM NaCl and 10% DMSO. The data were fit by non-linear regression to equation 1 to obtain the initial rates. The nonlinear progress curves observed with time dependent inhibitors were fit to equation 2 to obtain the first order rate constant Kobs. Results were expressed as kobs /I which is the second order rate constant (SORC) in per mole per second for inactivation of the enzyme.
Y=vs *x+[(vo -vs) (1-e^(-K.spsb.o^*x))/Ko
Kinetic constants for the inhibition of PR3 catalyzed hydrolysis of 0.2 mM MeO-succ-AAPV-pNA were determined by varying the concentration of inhibitor present in the reaction vessel.

SMILES | kinact/KI ([1]; pH 7.5, Table I) | also measured
CCC[C@@H](NC(=O)N1C(=O)C(CC)(CC)[C@@H]1Oc1ccc(C(C)N(C)CCOC)cc1)c1ccc2c(c1)OCO2 (stereo partly shown) | – | kinact/KI ([1]; pH 7.5, Table III): 1.3e+06 M⁻¹ s⁻¹; kinact/KI (HUMAN PROTEINASE 3): 31000 M⁻¹ s⁻¹
CCC[C@@H](NC(=O)N1C(=O)C(CC)(CC)[C@@H]1Oc1ccc(CN(CC)CCNC(C)=O)cc1)c1ccc(C)cc1 [R4=Et; R5=CH2 CH2 NHAc; R6=H] | 850000 M⁻¹ s⁻¹ | –
CCC[C@@H](NC(=O)N1C(=O)C(CC)(CC)[C@@H]1Oc1ccc(CN(CC)CCOC(=O)N(C)C)cc1)c1ccc(C)cc1 [R4=Et; R5=CH2 CH2 OCONMe2; R6=H] | 1.4e+06 M⁻¹ s⁻¹ | –
CCC[C@@H](NC(=O)N1C(=O)C(CC)(CC)[C@@H]1Oc1ccc(C(C)NCCOC)cc1)c1ccc(C)cc1 (stereo partly shown) [R4=H; R5=CH2 CH2 OMe; R6=Me] | 680000 M⁻¹ s⁻¹ | –
CCC[C@@H](NC(=O)N1C(=O)C(CC)(CC)[C@@H]1Oc1ccc(CN2CCN(C(=O)N(C)C)CC2)cc1)c1ccc2c(c1)OCO2 [(4S)-3,3-Diethyl-1-[(R)-α-n-propyl-3,4-methylenedioxy)benzylaminocarbonyl]-4-[(4-((4-diemthylaminocarbonyl)piperazin-1-yl)methyl)phenoxy]azetidin-2-one] | – | kinact/KI ([1]; pH 7.5, Table III): 4e+06 M⁻¹ s⁻¹
CCC[C@@H](NC(=O)N1C(=O)C(CC)(CC)[C@@H]1Oc1ccc(C(C)N2CCC[C@H]2COC)cc1)c1ccc(C)cc1 (single isomer, unassigned) [R4+R5=--CH2 CH2 CH2 CH(S--CH2 OMe)--; R6=Me (isomer A)] | 960000 M⁻¹ s⁻¹ | –
CCC[C@@H](NC(=O)N1C(=O)C(CC)(CC)[C@@H]1Oc1ccc(CNC(=O)NC(C)C)cc1)c1ccc(C)cc1 [R4=H; R5=CONH isoPr; R6=H, (4S)-3,3-Diethyl-1-[(R)-α-(n-propyl)-4-(methyl)benzylaminocarbonyl]-4-[(4-((N-isopropyl)aminocarbonyl)aminomethyl)phenoxy]azetidin-2-one] | 1.1e+06 M⁻¹ s⁻¹ | –
CCC[C@@H](NC(=O)N1C(=O)C(CC)(CC)[C@@H]1Oc1ccc(CN(C)CCOC)c(Cl)c1)c1ccc(C)cc1 | – | kinact/KI ([1]; pH 7.5, Table III): 1e+06 M⁻¹ s⁻¹
CCC[C@@H](NC(=O)N1C(=O)C(CC)(CC)[C@@H]1Oc1ccc(CNC(=O)CN(C)C)cc1)c1ccc(C)cc1 [R4=H; R5=COCH2 NMe2; R6=H, (4S)-3,3-Diethyl-1-[(R)-α-(n-propyl)-4-(methyl)benzyl-aminocarbonyl]-4-[(4-((N,N-dimethyl)aminomethylcarbonyl)aminomethyl)phenoxy]azetidin-2-one] | 800000 M⁻¹ s⁻¹ | –
CCC[C@@H](NC(=O)N1C(=O)C(CC)(CC)[C@@H]1Oc1ccc(C(C)NCCO)cc1)c1ccc(C)cc1 (stereo partly shown) [R4=H; R5=CH2 CH2 OH; R6=Me] | 660000 M⁻¹ s⁻¹ | –

Continued, in another order:

kinact/KI ([1]; pH 7.5, Table I) | SMILES | also measured
850000 M⁻¹ s⁻¹ | CCC[C@@H](NC(=O)N1C(=O)C(CC)(CC)[C@@H]1Oc1ccc(CN(C)CCN(C)C)cc1)c1ccc(C)cc1 [R4=Me; R5=CH2 CH2 NMe2; R6=H] | –
1.5e+06 M⁻¹ s⁻¹ | CCC[C@@H](NC(=O)N1C(=O)C(CC)(CC)[C@@H]1Oc1ccc(CN(C)CCCOC)cc1)c1ccc(C)cc1 [R4=Me; R5=CH2 CH2 CH2 OMe; R6=H] | –
440000 M⁻¹ s⁻¹ | CCC[C@@H](NC(=O)N1C(=O)C(CC)(CC)[C@@H]1Oc1ccc(CN(C)CCOC)cc1)c1ccc(C)cc1 [R4=Me; R5=CH2 CH2 OMe; R6=H, (4S)-3,3-Diethyl-1-[(R)-α-n-propyl-(4-methyl)benzylaminocarbonyl]-4-[(4-(2-methoxyethyl)methylaminomethyl)phenoxyl]azetidin-2-one] | –
500000 M⁻¹ s⁻¹ | CCC[C@@H](NC(=O)N1C(=O)C(CC)(CC)[C@@H]1Oc1ccc(CN(CCOC)C(C)C)cc1)c1ccc(C)cc1 [R4=i-Pr; R5=CH2 CH2 OMe; R6=H] | –
1.22e+06 M⁻¹ s⁻¹ | CCC[C@@H](NC(=O)N1C(=O)C(CC)(CC)[C@@H]1Oc1ccc(CN(C)C(C)COC)cc1)c1ccc(C)cc1 (stereo partly shown) [R4=Me; R5=CH(Me)CH2 OMe; R6=H] | –
560000 M⁻¹ s⁻¹ | CCC[C@@H](NC(=O)N1C(=O)C(CC)(CC)[C@@H]1Oc1ccc(CN(C)C)cc1)c1ccc(C)cc1 [R4=Me; R5=Me; R6=H] | –
1.05e+06 M⁻¹ s⁻¹ | CCC[C@@H](NC(=O)N1C(=O)C(CC)(CC)[C@@H]1Oc1ccc(CN(C)CCSCC)cc1)c1ccc(C)cc1 [R4=Me; R5=CH2 CH2 SEt; R6=H, (4S)-3,3-diethyl-1-[(R)-α-n-propyl-(4-methyl)benzylaminocarbonyl]-4-[(4-((2-thioethyl)ethyl)methylaminomethyl)phenoxy]azetidin-2-one] | –
1.25e+06 M⁻¹ s⁻¹ | CCC[C@@H](NC(=O)N1C(=O)C(CC)(CC)[C@@H]1Oc1ccc(CN(C)CCN(C)Cc2ccccc2)cc1)c1ccc(C)cc1 [R4=Me; R5=CH2 CH2 N(Me)Bn; R6=H] | –
870000 M⁻¹ s⁻¹ | CCC[C@@H](NC(=O)N1C(=O)C(CC)(CC)[C@@H]1Oc1ccc(CN(C)CCC(=O)N(C)C)cc1)c1ccc(C)cc1 [R4=Me; R5=CH2 CH2 CONMe2; R6=H] | –
1.5e+06 M⁻¹ s⁻¹ | CCC[C@@H](NC(=O)N1C(=O)C(CC)(CC)[C@@H]1Oc1ccc(CN(C)CCS(=O)(=O)CC)cc1)c1ccc(C)cc1 [R4=Me; R5=CH2 CH2 SO2 Et; R6=H, (4S)-3,3-Diethyl-1-[(R)-α-n-propyl-(4-methyl)benzylaminocarbonyl]-4-[(4-((2-thioethyl)ethyl)methylaminomethyl)phenoxy]azetidin-2-one. S-dioxide.] | –
1.85e+06 M⁻¹ s⁻¹ | CCC[C@@H](NC(=O)N1C(=O)C(CC)(CC)[C@@H]1Oc1ccc(CN(C)CCOC(=O)NC(C)C)cc1)c1ccc(C)cc1 [R4=Me; R5=CH2 CH2 OCONH(i-Pr); R6=H] | –
